These results are taken from patent US20110044938A1 (NYCOMED GMBH, priority 2006, published 2011).

The subject of assay [1] is RKO (RKOp27) human colon adenocarcinoma cells. Description: Alamar Blue cell viability assay, anti-proliferative/cytotoxic activity on proliferating RKO subclones. Format: cell-based. The settings on record: RKOp27, 72 h, RKO p27 uninduced (proliferating) cells, value = class bound given in Table A, read-out: −logIC50 RKO p27 uninduced (proliferating) (converted). An outline of the steps:
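RKOp27 subclones (5000 cells/well) were exposed 24 h after seeding to semi-log compound dilutions in DMEM with 10% FCS, in quadruplicate, for 72 h at 37 °C. Viability was read by Alamar Blue fluorescence (544/590 nm) relative to untreated cells (1% DMSO medium). IC50 came from concentration-effect curves and is reported as −log IC50 [mol/l].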

Assay [2] deals with subclones of RKO colon adenocarcinoma cells (RKOp27 or RKOp21) arrested by Ponasterone A. Put plainly: Alamar Blue cell viability assay, cell cycle specific mode of action: cells arrested by ectopic p27Kip1 induced by Ponasterone A versus proliferating cells. The note with it: Homo sapiens, RKO p27 induced (arrested) cells, 10 μM Ponasterone A, 72 hours, value = class bound given in Table A, read-out: −logIC50 RKO p27 induced (arrested) (converted). In kind it is cell-based. An outline of the steps:
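RKOp27 or RKOp21 cells, 15000/well in DMEM/10% FCS, either arrested by p27Kip1 induced with 10 μM Ponasterone A or proliferating without inducer; compound added after 24 h, 72 h at 37° C. Alamar Blue fluorescence (544/590 nm), viability as % of untreated cells; −log IC50 reported.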

In the case of `N#Cc1c(NC(=O)/C=C/c2cccnc2)sc2c1CC[C@@H](COC(=O)N1CC(O)C1)C2` [Example 73b, 3-Hydroxy-azetidine-l - carboxylic acid (R)-3-cyano-2-((E)-3-pyridin-3-yl-allanoylamino)-4,5,6,7-tetrahydro-benzo[b]thiophen-6-ylmethyl ester], the IC50 was 501 to 2000 nM in assay [1] and not below 100000 nM in assay [2].
For `CN(C)C(=O)OCC1CCc2c(sc(NC(=O)/C=C/c3cccnc3)c2C#N)C1` (stereo not drawn) [Example 74, Dimethyl-carbamic acid 3-cyano-2-((E)-3-pyridin-3-yl-allanoylamino)-4,5,6,7-tetrahydro-benzo[b]thiophen-6-ylmethyl ester] the same measures were not above 501 nM and not below 100000 nM.
For `CN(C)C(=O)OC[C@H]1CCc2c(sc(NC(=O)/C=C/c3cccnc3)c2C#N)C1` [Example 74a, Dimethyl-carbamic acid (S)-3-cyano-2-((E)-3-pyridin-3-yl-allanoylamino)-4,5,6,7-tetrahydro-benzo[b]thiophen-6-ylmethyl ester] the same measures were not above 501 nM and not below 100000 nM.
For `CN(C)C(=O)OC[C@@H]1CCc2c(sc(NC(=O)/C=C/c3cccnc3)c2C#N)C1` [Example 74b, Dimethyl-carbamic acid (R)-3-cyano-2-((E)-3-pyridin-3-yl-allanoylamino)-4,5,6,7-tetrahydro-benzo[b]thiophen-6-ylmethyl ester] the same measures were not above 501 nM and not below 100000 nM.
For the compound `N#Cc1c(NC(=O)/C=C/c2cccnc2)sc2c1CCC(COC(=O)N1CCC(O)C1)C2` (stereo not drawn) [Example 75, 3-Hydroxy-pyrrolidine-1-carboxylic acid 3-cyano-2-((E)-3-pyridin-3-yl-allanoylamino)-4,5,6,7-tetrahydro-benzo[b]thiophen-6-ylmethyl ester], the IC50 is not above 501 nM in assay [1] and not below 100000 nM in assay [2].
As for `N#Cc1c(NC(=O)/C=C/c2cccnc2)sc2c1CCC(OC(=O)N1CCC(O)C1)C2` (stereo not drawn) [Example 76, 3-Hydroxy-pyrrolidine-1-carboxylic acid 3-cyano-2-((E)-3-pyridin-3-yl-allanoylamino)-4,5,6,7-tetrahydro-benzo[b]thiophen-6-yl ester], the IC50 in assay [1] was not above 501 nM; in assay [2] it was not below 100000 nM.
Taken in the same sequence, the figures for `N#Cc1c(NC(=O)/C=C/c2cccnc2)sc2c1CCC(OC(=O)N1CC(O)C1)C2` (stereo not drawn) [Example 77, 3-Hydroxy-azetidine-1-carboxylic acid 3-cyano-2-((E)-3-pyridin-3-yl-allanoylamino)-4,5,6,7-tetrahydro-benzo[b]thiophen-6-yl ester] were not above 501 nM and not below 100000 nM.
Taken in the same sequence, the figures for `CN(C)C(=O)OC1CCc2c(sc(NC(=O)/C=C/c3cccnc3)c2C#N)C1` (stereo not drawn) [Example 78, Dimethyl-carbamic acid 3-cyano-2-((E)-3-pyridin-3-yl-allanoylamino)-4,5,6,7-tetrahydro-benzo[b]thiophen-6-yl ester] were not above 501 nM and not below 100000 nM.
For the compound `N#Cc1c(NC(=O)/C=C/c2cccnc2)sc2c1CCC(COC(=O)N1CCC1)C2` (stereo not drawn) [Example 79, Azetidine-1-carboxylic acid 3-cyano-2-((E)-3-pyridin-3-yl-allanoylamino)-4,5,6,7-tetrahydro-benzo[b]thiophen-6-ylmethyl ester], the IC50 in assay [1] was 501 to 2000 nM; in assay [2], not below 100000 nM.
For `N#Cc1c(NC(=O)/C=C/c2cccnc2)sc2c1CCC(OC(=O)N1CCC1)C2` (stereo not drawn) [Example 80, Azetidine-1-carboxylic acid 3-cyano-2-((E)-3-pyridin-3-yl-allanoylamino)-4,5,6,7-tetrahydro-benzo[b]thiophen-6-yl ester], the IC50 in assay [1] is not above 501 nM; in assay [2], not below 100000 nM.
With `COC(=O)[C@@H]1CCCN1C(=O)OC1CCc2c(sc(NC(=O)/C=C/c3cccnc3)c2C#N)C1` (stereo partly drawn) [Example 81, 2-(S)-Pyrrolidine-1,2-dicarboxylic acid 1-[3-cyano-2-((E)-3-pyridin-3-yl-allanoylamino)-4,5,6,7-tetrahydro-benzo[b]thiophen-6-yl] ester 2-methyl ester], the IC50 in assay [1] was 501 to 2000 nM; in assay [2], not below 100000 nM.
Taken in the same sequence, the figures for `CCN(CC)C(=O)OCC1CCc2c(sc(NC(=O)/C=C/c3cccnc3)c2C#N)C1` (stereo not drawn) [Example 82, Diethyl-carbamic acid 3-cyano-2-((E)-3-pyridin-3-yl-allanoylamino)-4,5,6,7-tetrahydro-benzo[b]thiophen-6-ylmethyl ester] were not above 501 nM and not below 100000 nM.
For `N#Cc1c(NC(=O)/C=C/c2cccnc2)sc2c1CCC(COC(=O)N1CCCCC1)C2` (stereo not drawn) [Example 83, Piperidine-1-carboxylic acid 3-cyano-2-((E)-3-pyridin-3-yl-allanoylamino)-4,5,6,7-tetrahydro-benzo[b]thiophen-6-ylmethyl ester] the same measures were not above 501 nM and not below 100000 nM.
For `N#Cc1c(NC(=O)/C=C/c2cccnc2)sc2c1CCC(COC(=O)N1CCOCC1)C2` (stereo not drawn) [Example 84, Morpholine-4-carboxylic acid-3-cyano-2-((E)-3-pyridin-3-yl-allanoylamino)-4,5,6,7-tetrahydro-benzo[b]thiophen-6-ylmethyl ester] the same measures were not above 501 nM and not below 100000 nM.
On to `CCN(C)C(=O)OCC1CCc2c(sc(NC(=O)/C=C/c3cccnc3)c2C#N)C1` (stereo not drawn) [Example 85, Ethyl-methyl-carbamic acid 3-cyano-2-((E)-3-pyridin-3-yl-allanoylamino)-4,5,6,7-tetrahydro-benzo[b]thiophen-6-ylmethyl ester], for which the IC50 in assay [1] was not above 501 nM; in assay [2] it was not below 100000 nM.
In the case of `N#Cc1c(NC(=O)/C=C/c2cccnc2)sc2c1CCC(COC(=O)N1CC=CC1)C2` (stereo not drawn) [Example 86, 2,5-Dihydro-pyrrole-1-carboxylic acid 3-cyano-2-((E)-3-pyridin-3-yl-allanoylamino)-4,5,6,7-tetrahydro-benzo[b]thiophen-6-ylmethyl ester], the IC50 was not above 501 nM in assay [1] and not below 100000 nM in assay [2].
`N#Cc1c(NC(=O)/C=C/c2cccnc2)sc2c1CCC(COC(=O)N1CCCC(O)C1)C2` (stereo not drawn) [Example 87, 3-Hydroxy-piperidine-1-carboxylic acid 3-cyano-2-((E)-3-pyridin-3-yl-allanoylamino)-4,5,6,7-tetrahydro-benzo[b]thiophen-6-ylmethyl ester]: the IC50 in assay [1] was not above 501 nM; in assay [2], not below 100000 nM.
For `N#Cc1c(NC(=O)/C=C/c2cccnc2)sc2c1CC[C@@H](COC(=O)N1CCC[C@@H](O)C1)C2` [Example 87a, (R)-3-Hydroxy-piperidine-1-carboxylic acid (R)-3-cyano-2-((E)-3-pyridin-3-yl-allanoylamino)-4,5,6,7-tetrahydro-benzo[b]thiophen-6-ylmethylester] the same measures were not above 501 nM and not below 100000 nM.
For `N#Cc1c(NC(=O)/C=C/c2cccnc2)sc2c1CC[C@H](COC(=O)N1CCC[C@@H](O)C1)C2` [Example 87b, (R)-3-Hydroxy-piperidine-1-carboxylic acid (S)-3-cyano-2-((E)-3-pyridin-3-yl-allanoylamino)-4,5,6,7-tetrahydro-benzo[b]thiophen-6-ylmethyl ester] the same measures were not above 501 nM and not below 100000 nM.
Taken in the same sequence, the figures for `N#Cc1c(NC(=O)/C=C/c2cccnc2)sc2c1CC[C@H](COC(=O)N1CCC[C@H](O)C1)C2` [Example 87c, (S)-3-Hydroxy-piperidine-1-carboxylic acid (S)-3-cyano-2-((E)-3-pyridin-3-yl-allanoylamino)-4,5,6,7-tetrahydro-benzo[b]thiophen-6-ylmethyl ester] were not above 501 nM and not below 100000 nM.
As to `N#Cc1c(NC(=O)/C=C/c2cccnc2)sc2c1CC[C@@H](COC(=O)N1CCC[C@H](O)C1)C2` [Example 87d, (S)-3-Hydroxy-piperidine-1-carboxylic acid (R)-3-cyano-2-((E)-3-pyridin-3-yl-allanoylamino)-4,5,6,7-tetrahydro-benzo[b]thiophen-6-ylmethyl ester], the IC50 is not above 501 nM in assay [1] and not below 100000 nM in assay [2].
For `CC1CCCN1C(=O)OCC1CCc2c(sc(NC(=O)/C=C/c3cccnc3)c2C#N)C1` (stereo not drawn) [Example 88, 2-Methylpyrrolidine-1-carboxylic acid 3-cyano-2-((E)-3-pyridin-3-yl-allanoylamino)-4,5,6,7-tetrahydro-benzo[b]thiophen-6-ylmethyl ester] the same measures were not above 501 nM and not below 100000 nM.
On to `COCC1CCCN1C(=O)OCC1CCc2c(sc(NC(=O)/C=C/c3cccnc3)c2C#N)C1` (stereo not drawn) [Example 89, 2-(Methoxymethyl) pyrrolidine-1-carboxylic acid 3-cyano-2-((E)-3-pyridin-3-yl-allanoylamino)-4,5,6,7-tetrahydro-benzo[b]thiophen-6-ylmethyl ester], for which the IC50 in assay [1] is not above 501 nM; in assay [2], not below 100000 nM.
Turning to `COC[C@@H]1CCCN1C(=O)OCC1CCc2c(sc(NC(=O)/C=C/c3cccnc3)c2C#N)C1` (stereo partly drawn) [Example 90, 2-(S)-(Methoxymethyl) pyrrolidine-1-carboxylic acid 3-cyano-2-((E)-3-pyridin-3-yl-allanoylamino)-4,5,6,7-tetrahydro-benzo[b]thiophen-6-ylmethyl ester], the figures for the IC50 in assay [1] and in assay [2] were not above 501 nM and not below 100000 nM, respectively.
